Data set [1] relates to spleen cells. As to the kind of experiment: Plaque forming cell assay (inhibition of antibody production). The data set is classed as cell-based, Balb/c strain mice. Particulars: Mus musculus, 120 h, inhibition of antibody production (PFC count), incubated 5 days, read-out: Inhibition rate (%); for inhibition at 10 µM: 10^-5M; for inhibition at 1 µM: 10^-6M. The procedure:
The plaque forming cell assay was performed by the following manner with reference to the method of Jerne [Science, 140, 405, (1963)] and the method of Yamamoto et al. [Drugs Exptl. Clin. Res., 8, 5, (1982)].
Male Balb/c strain mice (aged 7 weeks, SLC) were sensitized with 1 x 10^8 sheep red blood cells (Bio Test Research Institute), and 6 or 7 days after the sensitization, the spleen was extirpated. The cells obtained from the spleen were treated with ACT solution (tris-ammonium chloride isotonic buffer) to remove red blood cells. The cells were washed three times with an RPMI-1640 medium (Nissui Pharmaceutical Co., Ltd.). The spleen cells (1 x 10^7 cells), the test compound dissolved in dimethyl sulfoxide and sheep blood red cells (5 x 10^6) were suspended in an RPMI-1640 medium containing 10% bovine serum (Gibco Company), 2-mercaptoethanol (5 x 10^-5M), 50 µg/ml of streptomycin and 50 IU/ml of penicillin. The suspension was distributed into a microculture plate (NUNC Co., Ltd., 24 holes), and incubated for 5 days in a carbon dioxide gas incubator at 37°C.
After the termination of the incubation, the cells were transferred to a plastic test tube. The supernatant was removed by centrifugal separation (2000 rpm), and the pellet was re-suspended in 1 ml of an RPMI-1640 culture medium. The cell suspension, sheep blood red cells, and guinea pig complement (Cedarlene Institute) were incubated by the method of Cunningham [Immunology, 14, 599, (1968)], at 37°C for 1 to 2 hours. The appearing direct plaque cells (PFC count) in suspension were counted. From the resulting PFC count, the inhibition rate of the antibody production of the test compound was determined by the following formula. Inhibition rate (%) =(A - B)/(A)x 100 [formula] A : PFC count in the absence of test compound (dimethylsulfoxide alone) B : PFC count in the presence of test compound

In data set [2] the test system is tracheae. As to the kind of experiment: Passive Schultz-Dale (S-D) reaction, relaxation of antigen-contracted tracheal strips. Also noted: species or system Hartley guinea pigs. Particulars: Cavia porcellus; concentration of 50% relaxation rate; passively sensitized guinea pig tracheal strips contracted with egg white albumin 1 µg/ml. As for the experimental part:
Male Hartley guinea pigs weighing 350 to 500 g were passively sensitized by intraperitoneal injection of rabbit anti-OA serum prepared in advance by the method of Koda et al. [Folia Pharmacol., Japon 66, 237, (1970)]. After 24 hours, the guinea pigs were stunned and exsanguinated, and then tracheae were removed. The zig-zag strips of the tracheae were prepared by the method of Emmerson and Mackay [J. Pharm. Pharmacol., 31, 798, (1979)]. The strips were suspended in Krebs-Henseleit solution at 37°C under aeration of a mixed gas of 95% oxygen and 5% carbon dioxide, and equilibrated for one hour. Then, antigen (egg white albumin) was introduced in the solution (final concentration; 1 µg/ml), and the contraction was measured by isotonictransducer (TD-112s, Nihon Kohden Co., Ltd.) and recorded on a recorder (Type 3066, Yokogawa-Hokushin Denki, Co., Ltd.). After the contraction curves reached a plateau, the test compounds were successively added in order to get cumulative concentration-relaxation curves. The concentration of 50% relaxation rate (IC50) was calculated from the regression line, which was obtained from the cumulative concentration-relaxation curves.

For data set [3], the system named is PAF-induced mortality. As to the kind of experiment: Inhibition effect on platelet activating factor (PAF)-induced mortality. Particulars: Mus musculus, po, 2 h, minimum effective dose, orally, one hour before 40 µg/kg PAF intravenously, mortality two hours after PAF, read-out: Inhibition of PAF-induced mortality MED. The data set is classed as in vivo, dd mice. The procedure:
The experiment was performed by a minor modification of method of Carlson et al. [Agents and Actions, 21, 379 (1987)]. Groups each consisting of 10 male dd mice (weighing 28 to 32 g) were used, and 100 mg/kg of test compound or a saline (control) was orally administered. One hour after the administration of the test compound, 40 µg/kg of PAF (manufactured by Avanti Polar Lipids Co., Ltd.) were intravenously administered. Two hours after PAF injection, the mortality rate of the animals was observed. […]

For data set [4], the system named is hair growth. Put plainly: Hair growth stimulation. The data set is classed as in vivo, C3H/HeSlc-strain mice. The settings on record: 16th day; applied once a day in ethanol : propyleneglycol (6 : 4); Compound 1 at 0.14 %, Compound 3 at 1.00 % (Table 4). The text has this:
Effect of test compound on hair growth in mice was examined. Hair on the back of male C3H/HeSlc-strain mice aged 9 weeks, which was in the telogen of hair cycle was clipped off by an electric hair-clipper. The test compound dissolved in a solvent mixture [ethanol : propyleneglycol (6 : 4)] was uniformly applied to the hair removed area of the mice once a day. The group which received the solvent mixture alone was used as control.
Hair growth stimulation was estimated by measuring the ratio of the hair growing area to the test compound treated area by photograph. In the group having received the test comound, darkening of intraderma (indicating the formation of hair follicles) was observed on the 10th day, and then hair growth rapidly progressed.
In contrast, on the 16th day of the control group, darkening of intraderma was observed only in the part of the solvent treated area and hair growth scarcely occurred. […]

A short description of data set [5]: Acute toxicity test. The data set is classed as in vivo, dd-strain mice. Particulars: orally administered; mortality observed for seven days. The procedure:
Male dd-strain mice weighing 20 -25 g, groups each consisting of 3 animals, were used, and Compound 1 and Compound 3 were orally administered. MLD was determined by observing the mortality for seven days after the administration. MLD of both compounds were over 300 mg/kg.

As to `O=c1c2c(-c3ccccc3)n[nH]c2c2cccnc2n1-c1ccccc1` [Compound 1, 3,5-Diphenyl-1H-pyrazolo[4,3-c][1,8]naphthyridin-4(5H)-one], in data set [1], the inhibition at 10 µM was 85.8% and the inhibition at 1 µM is 77.2%. The IC50 in data set [2] turned out to be 3150 nM. Also, the minimal effective dose in data set [3] was 10 mg/kg. The “Hair growing area (%) Mean ± S.D.” value in data set [4] is on record as 91.5 ± 8.0%. In data set [5], the MLD result was “over 300 mg/kg”.

As to `Cc1n[nH]c2c1c(=O)n(-c1ccccc1)c1ncccc21` [Compound 2, 3-Methyl-5-phenyl-1H-pyrazolo[4,3-c][1,8]naphthyridin-4(5H)-one], in data set [1], the inhibition at 10 µM was determined as 92.4% and the inhibition at 1 µM turned out to be 85.8%.

With `CC(C)Cc1n[nH]c2c1c(=O)n(-c1ccccc1)c1ncccc21` [Compound 3, 3-Isobutyl-5-phenyl-1H-pyrazolo[4,3-c][1,8]naphthyridin-4(5H)-one], in data set [1], the inhibition at 10 µM is 74.9% and the inhibition at 1 µM worked out at 77.2%. Further, in data set [2], the half-maximal inhibitory concentration (IC50) is 258 nM. Further, the minimal effective dose in data set [3] was determined as 5 mg/kg. Besides, in data set [4], the “Hair growing area (%) Mean ± S.D.” value was found to be 91.8 ± 7.2%. For the same compound, the MLD entry in data set [5] is recorded as “over 300 mg/kg”.

With `Cc1nn(C)c2c1c(=O)n(-c1ccccc1)c1ncccc21` [Compound 4, 1,3-Dimethyl-5-phenyl-1H-pyrazo1o[4,3-c][1,8]naphthyridin-4(5H)-one], the inhibition at 10 µM in data set [1] turned out to be 81.4%.

As to `Cn1nc(N)c2c(=O)n(-c3ccccc3)c3ncccc3c21` [Compound 6, 3-Amino-1-methyl-5-phenyl-1H-pyrazolo[4,3-c][1,8]naphthyridin-4(5H)-one], in data set [1], the inhibition at 10 µM amounted to 76.5%.

Consider `Nc1c2c(=O)n(-c3ccccc3)c3ncccc3c2nn1-c1ccccc1` [Compound 7, 3-Amino-2,5-diphenyl-2H-pyrazolo[4,3-c][1,8]naphtyyridin-4(5H)-one], for which the inhibition at 10 µM in data set [1] worked out at 83.8%.

For the compound `O=c1c2c(-c3cccs3)n[nH]c2c2cccnc2n1-c1ccccc1` [Compound 10, 5-Phenyl-3-thienyl-1H-pyrazolo[4,3-c][1,8]naphthyridin-4(5H)-one], in data set [1], the inhibition at 10 µM was found to be 83.9% and the inhibition at 1 µM was 57.1%. The half-maximal inhibitory concentration (IC50) in data set [2] was determined as 708 nM.

`COc1ccc(-c2n[nH]c3c2c(=O)n(-c2ccccc2)c2ncccc32)cc1` [Compound 11, 3-(4-methoxyphenyl)-5-phenyl-1H-pyrazolo[4,3-c][1,8]naphthyridin-4(5H)-one]: in data set [1], the inhibition at 10 µM is 99.5% and the inhibition at 1 µM was 26.5%.

What is called inhibition is the change of the read-out against control, counted positive when it falls. What is called IC50 is the concentration at which inhibition is half-maximal.

Source of the values: EP0526840B1, “Condensed naphthyridine derivatives” (KYOWA HAKKO KOGYO CO., LTD., priority 1991, dated 1993).
